Activity calls are given as the source filed them. The rule behind the calls is not given here.
Experiments:
[1] = Inhibition of rat FTase using farnesylpyrophosphate and dansyl-GCVLS as substrate preincubated for 5 mins measured after 15 mins by fluorescence assay
[2] = Inhibition of rat GGTase-1 using geranylgeranyl-pyrophosphate and dansyl-GCVLL as substrate preincubated for 5 mins measured after 15 mins by fluorescence assay
Rattus norvegicus [3] = species on record: Rattus norvegicus; assay: Bisubstrate inhibition of rat FTase at 20 to 40 nM using farnesylpyrophosphate and dansyl-GCVLS as substrate by double-reciprocal plot analysis
Rattus norvegicus [4] = species on record: Rattus norvegicus; assay: Bisubstrate inhibition of rat GGTase-1 at 20 to 40 nM using geranylgeranyl-pyrophosphate and dansyl-GCVLL as substrate by double-reciprocal plot analysis

Row | Compound | IC50 [1] | IC50 [2] | inhibition (Rattus norvegicus [3]) | inhibition (Rattus norvegicus [4])
1 | COc1ccc(CN2C(=O)CNC(=O)[C@H]2C)cc1 | 0.621 µM | 2.83 µM |  | 
2 | COc1ccc(C[C@@H]2C(=O)NCC(=O)N2Cc2ccco2)cc1 | 0.118 µM | 0.41 µM |  | 
3 | COc1ccc(C[C@@H]2C(=O)NCC(=O)N2Cc2ccc(OC)cc2)cc1 | 0.129 µM | 0.38 µM |  | 
4 | COc1ccc(CN2C(=O)CNC(=O)[C@@H]2C(C)C)cc1 | 0.774 µM | 3.82 µM |  | 
5 | O=C1NCC(=O)N(Cc2ccco2)[C@H]1Cc1ccccc1 | 0.16 µM | 1.82 µM |  | 
6 | CC(C)C[C@@H]1C(=O)NCC(=O)N1Cc1ccco1 | 0.421 µM | 1.66 µM |  | 
7 | C[C@H]1C(=O)NCC(=O)N1Cc1ccco1 | 1.56 µM | 5.22 µM |  | 
8 | CC(C)[C@@H]1C(=O)NCC(=O)N1Cc1ccco1 | 0.346 µM | 1.92 µM |  | 
9 | COc1ccc(CN2C(=O)CNC(=O)[C@H]2CCSC)cc1 | 0.109 µM | 0.32 µM |  | 
10 | O=C1NCC(=O)N(Cc2ccco2)[C@@H]1CSCc1ccccc1 | 0.0991 µM | 0.76 µM |  | 
11 | O=C1NCC(=O)N(Cc2ccco2)[C@H]1Cc1c[nH]cn1 | 0.0972 µM | 0.98 µM |  | 
12 | COc1ccc(CN2C(=O)CNC(=O)[C@@H]2CC(C)C)cc1 | 0.582 µM | 3.92 µM |  | 
13 | COc1ccc(CN2C(=O)CNC(=O)[C@@H]2CCSC)cc1 | 0.19 µM | 0.7 µM |  | 
14 | COc1ccc(C[C@H]2C(=O)NCC(=O)N2Cc2ccc(OC)cc2)cc1 | 0.188 µM | 0.88 µM |  | 
15 | O=C1NCC(=O)N(Cc2ccc(N3CCOCC3)cc2)[C@@H]1Cc1c[nH]c2ccccc12 | 0.132 µM | 0.0881 µM |  | 
16 | O=C1NCC(=O)N(Cc2ccco2)[C@@H]1Cc1c[nH]cn1 | 0.0706 µM | 0.35 µM |  | 
17 | COc1ccc(CN2C(=O)CNC(=O)[C@@H]2C)cc1 | 1.1 µM | 5.21 µM |  | 

Row | Compound | IC50 [1] | IC50 [2] | inhibition (Rattus norvegicus [3]) | inhibition (Rattus norvegicus [4])
18 | COc1ccc(C[C@H]2C(=O)NCC(=O)N2Cc2ccco2)cc1 | 0.234 µM | 1.05 µM |  | 
19 | CC(C)C[C@H]1C(=O)NCC(=O)N1Cc1ccco1 | 0.476 µM | 3.88 µM |  | 
20 | C[C@@H]1C(=O)NCC(=O)N1Cc1ccco1 | 0.971 µM | 3.83 µM |  | 
21 | COc1ccc(CN2C(=O)CNC(=O)[C@H]2C(C)C)cc1 | 0.479 µM | 1.7 µM |  | 
22 | O=C1NCC(=O)N(Cc2ccc(N3CCOCC3)cc2)[C@H]1Cc1c[nH]c2ccccc12 | 0.225 µM | 0.123 µM |  | 
23 | O=C1NCC(=O)N(Cc2ccc(F)cc2)[C@H]1Cc1c[nH]c2ccccc12 | 0.0782 µM | 0.77 µM |  | 
24 | COc1ccc(CN2C(=O)CNC(=O)[C@H]2Cc2c[nH]cn2)cc1 | 0.0785 µM | 0.18 µM |  | 
25 | COc1ccc(CN2C(=O)CNC(=O)[C@@H]2Cc2ccccc2)cc1 | 0.183 µM | 1.96 µM |  | 
26 | COc1ccc(CN2C(=O)CNC(=O)[C@H]2Cc2ccccc2)cc1 | 0.142 µM | 0.46 µM |  | 
27 | CSCC[C@@H]1C(=O)NCC(=O)N1Cc1ccco1 | 0.121 µM | 0.73 µM |  | 
28 | CSCC[C@H]1C(=O)NCC(=O)N1Cc1ccco1 | 0.189 µM | 1.89 µM |  | 
29 | COc1ccc(CN2C(=O)CNC(=O)[C@@H]2Cc2c[nH]cn2)cc1 | 0.107 µM | 0.59 µM |  | 
30 | O=C1NCC(=O)N(Cc2ccco2)[C@H]1Cc1c[nH]c2ccccc12 | 0.0721 µM | 0.79 µM |  | 
31 | O=C1NCC(=O)N(Cc2ccco2)[C@@H]1Cc1ccccc1 | 0.177 µM | 0.62 µM |  | 
32 | COc1ccc(CN2C(=O)CNC(=O)[C@H]2CSCc2ccccc2)cc1 | 0.0707 µM | 0.47 µM |  | 
33 | COc1ccc(CN2C(=O)CNC(=O)[C@H]2CC(C)C)cc1 | 0.346 µM | 1.2 µM |  | 
34 | CC(C)[C@H]1C(=O)NCC(=O)N1Cc1ccco1 | 0.541 µM | 3.2 µM |  | 

Further molecules by falling IC50 [1], results first:

Row | IC50 [1] | IC50 [2] | inhibition (Rattus norvegicus [3]) | inhibition (Rattus norvegicus [4]) | Compound
35 | 0.0689 µM | 0.27 µM |  |  | O=C1NCC(=O)N(Cc2ccco2)[C@H]1CSCc1ccccc1
36 | 0.0588 µM | 0.52 µM |  |  | COc1ccc(CN2C(=O)CNC(=O)[C@@H]2Cc2c[nH]c3ccccc23)cc1
37 | 0.0524 µM | 0.22 µM |  |  | O=C1NCC(=O)N(Cc2ccco2)[C@@H]1Cc1c[nH]c2ccccc12
38 | 0.0451 µM | 0.16 µM |  |  | COc1ccc(CN2C(=O)CNC(=O)[C@@H]2CSCc2ccccc2)cc1
39 | 0.0447 µM | 0.48 µM |  |  | O=C1NCC(=O)N(Cc2ccc(F)cc2)[C@@H]1Cc1c[nH]c2ccccc12
40 | 0.0432 µM | 0.32 µM |  |  | N#Cc1ccc(CN2C(=O)CNC(=O)[C@@H]2Cc2c[nH]c3ccccc23)cc1
41 | 0.042 µM | 0.52 µM |  |  | O=C1NCC(=O)N(Cc2ccc(Cl)cc2)[C@H]1Cc1c[nH]c2ccccc12
42 | 0.0417 µM | 0.63 µM |  |  | O=C1NCC(=O)N(Cc2ccc(Br)cc2)[C@H]1Cc1c[nH]c2ccccc12
43 | 0.0398 µM | 0.15 µM |  |  | COc1ccc(CN2C(=O)CNC(=O)[C@H]2Cc2c[nH]c3ccccc23)cc1
44 | 0.0387 µM | 0.13 µM |  |  | N#Cc1ccc(CN2C(=O)CNC(=O)[C@H]2Cc2c[nH]c3ccccc23)cc1
45 | 0.034 µM | 0.219 µM |  |  | COc1c(Cl)cc(Cl)cc1CN1C(=O)CNC(=O)[C@@H]1Cc1c[nH]c2ccccc12
46 | 0.0331 µM | 0.17 µM |  |  | O=C1NCC(=O)N(Cc2ccc(Cl)cc2)[C@@H]1Cc1c[nH]c2ccccc12
47 | 0.0298 µM | 0.12 µM |  |  | O=C1NCC(=O)N(Cc2ccc(Br)cc2)[C@@H]1Cc1c[nH]c2ccccc12
48 | 0.0265 µM | 0.0965 µM |  |  | O=C1NCC(=O)N(Cc2ccc(Oc3cccc(Cl)c3)cc2)[C@H]1Cc1c[nH]c2ccccc12
49 | 0.0223 µM | 0.0923 µM |  |  | O=C1NCC(=O)N(Cc2ccc(Oc3ccc(Cl)c(Cl)c3)cc2)[C@H]1Cc1c[nH]c2ccccc12
50 | 0.0221 µM | 0.0782 µM |  |  | COc1c(Cl)cc(Cl)cc1CN1C(=O)CNC(=O)[C@H]1Cc1c[nH]c2ccccc12
51 | 0.0178 µM | 0.0323 µM |  |  | O=C1NCC(=O)N(Cc2ccc(Oc3cccc(Cl)c3)cc2)[C@@H]1Cc1c[nH]c2ccccc12
52 | 0.0131 µM | 0.021 µM | Active | Active | O=C1NCC(=O)N(Cc2ccc(Oc3ccc(Cl)c(Cl)c3)cc2)[C@@H]1Cc1c[nH]c2ccccc12

Reference: ChEMBL document CHEMBL1781910, “Design, synthesis, and characterization of piperazinedione-based dual protein inhibitors for both farnesyltransferase and geranylgeranyltransferase-I” (Eur J Med Chem, 2011)
